In ChEMBL document CHEMBL5291721, “A preclinical secondary pharmacology resource illuminates target-adverse drug reaction associations of marketed drugs” (Nat Commun, 2023) one finds AC50 data, which are given here for 17 molecules.

Assay [1] concerns the target Sodium-dependent serotonin transporter (Homo sapiens, UniProt P31645).
The next assay concerns the target T1, Progesterone receptor (Homo sapiens, UniProt P06401).
T1 sequence (P06401 whole entry): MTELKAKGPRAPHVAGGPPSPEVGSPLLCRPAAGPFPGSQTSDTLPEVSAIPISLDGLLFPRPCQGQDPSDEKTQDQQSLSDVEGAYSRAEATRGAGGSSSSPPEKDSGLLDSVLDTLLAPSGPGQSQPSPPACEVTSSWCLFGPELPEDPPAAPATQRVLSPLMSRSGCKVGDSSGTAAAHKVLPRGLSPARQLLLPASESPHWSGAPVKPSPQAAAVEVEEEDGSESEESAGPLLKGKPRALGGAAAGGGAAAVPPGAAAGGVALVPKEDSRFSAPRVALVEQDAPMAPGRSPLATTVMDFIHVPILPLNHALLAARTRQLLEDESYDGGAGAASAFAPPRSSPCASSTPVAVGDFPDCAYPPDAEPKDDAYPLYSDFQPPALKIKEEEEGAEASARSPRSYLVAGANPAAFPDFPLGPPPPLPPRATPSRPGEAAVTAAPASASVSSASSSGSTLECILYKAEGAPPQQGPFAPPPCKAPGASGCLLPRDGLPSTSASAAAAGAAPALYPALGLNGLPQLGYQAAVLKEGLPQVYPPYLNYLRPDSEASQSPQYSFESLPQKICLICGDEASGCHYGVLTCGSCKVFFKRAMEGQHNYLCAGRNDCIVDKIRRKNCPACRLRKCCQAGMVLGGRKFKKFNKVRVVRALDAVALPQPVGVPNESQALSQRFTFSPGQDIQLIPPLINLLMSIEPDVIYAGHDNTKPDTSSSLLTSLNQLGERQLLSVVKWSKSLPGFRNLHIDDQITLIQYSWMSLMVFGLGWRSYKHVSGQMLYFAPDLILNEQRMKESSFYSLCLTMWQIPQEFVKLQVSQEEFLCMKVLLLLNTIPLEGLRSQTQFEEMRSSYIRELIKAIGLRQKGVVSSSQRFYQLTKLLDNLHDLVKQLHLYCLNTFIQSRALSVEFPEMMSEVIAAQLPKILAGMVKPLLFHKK
Type of assay: functional.

For assay [2], the target named is Glutamate receptor ionotropic, NMDA 1 (Rattus norvegicus, UniProt P35439).
Assay [3] concerns the target T2, Alpha-2A adrenergic receptor (Homo sapiens, UniProt P08913).
T2 sequence (P08913 whole entry): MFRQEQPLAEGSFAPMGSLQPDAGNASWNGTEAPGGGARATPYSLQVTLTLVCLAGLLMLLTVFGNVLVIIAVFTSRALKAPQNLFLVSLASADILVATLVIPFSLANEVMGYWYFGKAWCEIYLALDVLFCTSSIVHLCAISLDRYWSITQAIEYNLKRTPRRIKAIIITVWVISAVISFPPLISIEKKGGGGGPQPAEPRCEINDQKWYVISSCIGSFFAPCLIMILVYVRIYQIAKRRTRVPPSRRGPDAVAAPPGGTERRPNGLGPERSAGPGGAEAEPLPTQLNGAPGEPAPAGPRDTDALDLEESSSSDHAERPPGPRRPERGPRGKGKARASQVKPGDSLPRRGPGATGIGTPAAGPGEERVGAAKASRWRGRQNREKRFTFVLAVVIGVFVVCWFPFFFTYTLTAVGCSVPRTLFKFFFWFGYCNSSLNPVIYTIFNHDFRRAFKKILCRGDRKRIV
It counts as functional, cell-based.

Assay [4] concerns the target T3, Neuropeptide Y receptor type 1 (Homo sapiens, UniProt P25929).
T3 sequence (P25929 whole entry): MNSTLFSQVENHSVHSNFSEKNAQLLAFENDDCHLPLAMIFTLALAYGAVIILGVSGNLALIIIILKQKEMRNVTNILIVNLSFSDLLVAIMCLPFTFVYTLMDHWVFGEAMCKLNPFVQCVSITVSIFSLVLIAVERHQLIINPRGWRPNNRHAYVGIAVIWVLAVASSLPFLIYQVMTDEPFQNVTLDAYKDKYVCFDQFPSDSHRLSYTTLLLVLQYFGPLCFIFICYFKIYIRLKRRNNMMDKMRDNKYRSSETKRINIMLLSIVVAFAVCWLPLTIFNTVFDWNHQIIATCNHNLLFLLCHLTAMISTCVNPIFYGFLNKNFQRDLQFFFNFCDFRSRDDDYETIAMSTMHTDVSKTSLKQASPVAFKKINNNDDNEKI

Assay [5] has as its target 5-hydroxytryptamine receptor 2B (Homo sapiens, UniProt P41595). Type of assay: functional, cell-based.
Assay [6] concerns the target T4, Equilibrative nucleoside transporter 1 (Homo sapiens, UniProt Q99808).
T4 sequence (Q99808 whole entry): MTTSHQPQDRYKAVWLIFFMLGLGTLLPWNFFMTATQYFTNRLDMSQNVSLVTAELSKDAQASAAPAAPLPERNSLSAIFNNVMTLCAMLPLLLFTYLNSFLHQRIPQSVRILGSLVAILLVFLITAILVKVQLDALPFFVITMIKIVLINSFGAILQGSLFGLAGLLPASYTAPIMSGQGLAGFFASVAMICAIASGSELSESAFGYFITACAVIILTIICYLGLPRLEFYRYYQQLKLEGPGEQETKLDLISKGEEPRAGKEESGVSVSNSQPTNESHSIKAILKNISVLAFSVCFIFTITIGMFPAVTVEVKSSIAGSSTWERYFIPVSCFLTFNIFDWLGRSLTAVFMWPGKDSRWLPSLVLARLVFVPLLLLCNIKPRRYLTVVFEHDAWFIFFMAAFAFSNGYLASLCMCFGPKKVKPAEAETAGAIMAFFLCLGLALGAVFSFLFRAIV
Note: assay procedure not described here.

Sequence of 5-hydroxytryptamine receptor 2B (P41595 whole entry): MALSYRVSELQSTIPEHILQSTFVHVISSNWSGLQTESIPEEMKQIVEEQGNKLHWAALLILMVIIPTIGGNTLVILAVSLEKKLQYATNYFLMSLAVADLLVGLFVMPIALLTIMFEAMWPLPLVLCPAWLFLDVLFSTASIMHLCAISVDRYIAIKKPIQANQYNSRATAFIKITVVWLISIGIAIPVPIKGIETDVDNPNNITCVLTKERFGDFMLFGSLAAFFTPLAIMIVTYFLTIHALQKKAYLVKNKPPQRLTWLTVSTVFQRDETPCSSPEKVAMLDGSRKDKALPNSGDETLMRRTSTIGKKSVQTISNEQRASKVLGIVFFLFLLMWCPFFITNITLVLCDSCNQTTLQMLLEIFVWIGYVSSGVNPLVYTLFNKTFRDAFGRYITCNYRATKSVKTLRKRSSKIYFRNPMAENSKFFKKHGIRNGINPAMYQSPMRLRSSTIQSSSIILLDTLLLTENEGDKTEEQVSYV
Sequence of Sodium-dependent serotonin transporter (P31645 whole entry): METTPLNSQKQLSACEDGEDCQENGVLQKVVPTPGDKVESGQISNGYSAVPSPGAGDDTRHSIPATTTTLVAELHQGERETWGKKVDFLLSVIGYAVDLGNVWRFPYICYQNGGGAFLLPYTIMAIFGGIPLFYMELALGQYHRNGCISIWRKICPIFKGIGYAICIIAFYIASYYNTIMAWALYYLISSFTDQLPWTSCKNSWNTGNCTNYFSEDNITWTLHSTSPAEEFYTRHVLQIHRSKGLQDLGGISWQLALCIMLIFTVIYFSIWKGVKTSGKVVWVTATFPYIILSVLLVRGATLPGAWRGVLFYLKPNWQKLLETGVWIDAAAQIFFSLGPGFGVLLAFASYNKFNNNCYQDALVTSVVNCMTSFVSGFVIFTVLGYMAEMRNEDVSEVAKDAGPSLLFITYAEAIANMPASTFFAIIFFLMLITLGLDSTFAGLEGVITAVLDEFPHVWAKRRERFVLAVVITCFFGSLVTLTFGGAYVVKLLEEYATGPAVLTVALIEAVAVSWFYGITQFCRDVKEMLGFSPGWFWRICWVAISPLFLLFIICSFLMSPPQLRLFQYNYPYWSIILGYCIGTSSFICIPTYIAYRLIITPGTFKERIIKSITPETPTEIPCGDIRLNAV

What is called AC50 is the midpoint of the concentration-response curve, whichever way the signal moves. A lower AC50 goes with greater potency. For the molecule `Cc1ccc(S(=O)(=O)NC(=O)N[C@H]2[C@H]3CC[C@@](C)([C@H]2O)C3(C)C)cc1` [GLIBORNURIDE], the AC50 (in assay [1]; at Progesterone receptor; in assay [2]; in assay [3]; in assay [4]; in assay [5]) was more than 30 µM throughout. Moreover, the AC50 in assay [6] is more than 30 µM.

Consider `CCC(NC(C)C)C(O)c1ccc(O)c(O)c1` (centres undefined) [ISOETHARINE], for which the half-maximal activity concentration (AC50) (in assay [1]; at Progesterone receptor; in assay [2]; in assay [3]; in assay [4]; in assay [5]) was more than 30 µM each time. Moreover, in assay [6], the AC50 is more than 30 µM.

With `O=C(C[S+]([O-])Cc1ccco1)NC/C=C\COc1cc(CN2CCCCC2)ccn1` (centres undefined) [LAFUTIDINE], the half-maximal activity concentration (AC50) (in assay [1]; at Progesterone receptor; in assay [2]; in assay [3]; in assay [4]; in assay [5]) was more than 10 µM in each case. In assay [6], this molecule returned an AC50 of more than 10 µM.

As to `CCC(=O)O[C@H](CC(=O)O)C[N+](C)(C)C` [LEVOCARNITINE PROPIONATE], the AC50 (in assay [1]; on Progesterone receptor; in assay [2]; in assay [3]; in assay [4]; in assay [5]) was more than 30 µM in each case. This molecule also came in with an AC50 in assay [6] of more than 30 µM.

Take `O=C(O)c1nn(Cc2ccc(Cl)cc2Cl)c2ccccc12` [LONIDAMINE]: the AC50 (in assay [1]; at Progesterone receptor; in assay [2]; in assay [3]; in assay [4]; in assay [5]) was more than 30 µM each time. This molecule yielded an AC50 in assay [6] of more than 30 µM.

As for `CCC1(CC)C(=O)NC(=O)N(C)C1=O` [METHARBITAL], the concentration at half-maximal activity (AC50) (in assay [1]; at Progesterone receptor; in assay [2]; in assay [3]; in assay [4]; in assay [5]) was more than 10 µM each time. In assay [6], this molecule registered a concentration at half-maximal activity (AC50) of more than 10 µM.

Regarding `COC(=O)c1ccc2c(c1)NC(=O)/C2=C(\Nc1ccc(N(C)C(=O)CN2CCN(C)CC2)cc1)c1ccccc1` [NINTEDANIB], the AC50 (in assay [1]; on Progesterone receptor; in assay [2]; in assay [3]; in assay [4]; in assay [5]) was more than 30 µM throughout. Moreover, in assay [6], the half-maximal activity concentration (AC50) was more than 30 µM.

Regarding `CCN(CC)Cc1nccn1-c1ccc([N+](=O)[O-])cc1C(=O)c1ccccc1Cl` [NIZOFENONE], the AC50 (in assay [1]; at Progesterone receptor; in assay [2]; in assay [3]; in assay [4]; in assay [5]) was more than 30 µM in each case. The AC50 in assay [6] was more than 30 µM.

For the molecule `CCOC(=O)O[C@]1(C(=O)COC(=O)CC)CC[C@H]2[C@@H]3CCC4=CC(=O)C=C[C@]4(C)[C@H]3[C@@H](O)C[C@@]21C` [PREDNICARBATE], the concentration at half-maximal activity (AC50) was more than 10 µM in assay [1]; 1.3 µM at Progesterone receptor; more than 10 µM in assay [2]; more than 10 µM in assay [3]; more than 10 µM in assay [4]; more than 10 µM in assay [5]. The molecule also gave an AC50 in assay [6] of more than 10 µM.

As for `CCC(=O)[C@@]1(C)[C@H](C)C[C@H]2[C@@H]3CCC4=CC(=O)C=C[C@]4(C)[C@H]3[C@@H](O)C[C@@]21C` [RIMEXOLONE], the AC50 was more than 10 µM in assay [1]; 0.0032 µM on Progesterone receptor; more than 10 µM in assay [2]; more than 10 µM in assay [3]; more than 10 µM in assay [4]; more than 10 µM in assay [5]. The same molecule registered a half-maximal activity concentration (AC50) in assay [6] of more than 10 µM.

As to `CS(=O)(=O)NC(=O)CCC/C=C\C[C@H]1C(=O)C[C@@H](O)[C@@H]1/C=C/[C@@H](O)COc1ccccc1` [SULPROSTONE], the concentration at half-maximal activity (AC50) (in assay [1]; at Progesterone receptor; in assay [2]; in assay [3]; in assay [4]; in assay [5]) was more than 30 µM in each case. The AC50 in assay [6] is more than 30 µM.

On to `CCCCOC(=O)C(=O)Nc1cccc(-c2nnn[nH]2)c1` [TAZANOLAST], for which the half-maximal activity concentration (AC50) (in assay [1]; on Progesterone receptor; in assay [2]; in assay [3]; in assay [4]; in assay [5]) was more than 30 µM throughout. In assay [6], this molecule gave an AC50 of more than 30 µM.

Take `CC(C(=O)O)c1ccc(C(=O)c2ccccc2)s1` (centres undefined) [TIAPROFENIC ACID]: the half-maximal activity concentration (AC50) (in assay [1]; on Progesterone receptor; in assay [2]; in assay [3]; in assay [4]; in assay [5]) was more than 10 µM throughout. Moreover, the AC50 in assay [6] is more than 10 µM.

As to `CCCCC[C@H](O)CC[C@@H]1[C@H]2Cc3cccc(OCC(=O)O)c3C[C@H]2C[C@H]1O` [TREPROSTINIL], the AC50 (in assay [1]; on Progesterone receptor; in assay [2]; in assay [3]; in assay [4]; in assay [5]) was more than 30 µM in each case. The same molecule came in with an AC50 in assay [6] of more than 30 µM.

With `CC1=C(/C=C/C(C)=C/C=C/C(C)=C/C(=O)Oc2c(C)c(C)c3c(c2C)CCC(C)(CCCC(C)CCCC(C)CCCC(C)C)O3)C(C)(C)CCC1` (centres undefined) [TRETINOIN TOCOFERIL], the concentration at half-maximal activity (AC50) (in assay [1]; at Progesterone receptor; in assay [2]; in assay [3]; in assay [4]; in assay [5]) was more than 30 µM each time. In assay [6], this molecule returned an AC50 of more than 30 µM.

As to `CN(C)CCOCC(=O)NC12CC3CC(CC(C3)C1)C2` [TROMANTADINE], the half-maximal activity concentration (AC50) (in assay [1]; on Progesterone receptor; in assay [2]; in assay [3]; in assay [4]; in assay [5]) was more than 30 µM each time. In assay [6], this molecule displayed a concentration at half-maximal activity (AC50) of more than 30 µM.

For the molecule `CCCCCCCC(=O)CC[C@@H]1[C@@H](C/C=C\CCCC(=O)O)[C@@H](O)C[C@H]1O` [UNOPROSTONE], the concentration at half-maximal activity (AC50) (in assay [1]; on Progesterone receptor; in assay [2]; in assay [3]; in assay [4]; in assay [5]) was more than 30 µM throughout. In assay [6], this molecule registered a half-maximal activity concentration (AC50) of more than 30 µM.
